# According to patent US20120178695A1, “METHODS OF TREATING NEUROPATHIC PAIN” (priority 2009, published 2012):
# Peptide text beside a SMILES is read from it.
# Columns and labels:
# [1] = tested on: rat formalin model of tonic pain; assay: rat formalin model of tonic pain; type: in vivo; details: for antinociceptive efficacy (percentage analgesia, late phase response): subcutaneous before formalin, second phase 10-40 min after formalin
# Procedure: FIG. 1 depicts the antinociceptive actions of GLYX-13 and gabapentin in the rat formalin model of tonic pain. Percentage analgesia is the percentage reduction (on the basis of the area under the curve for vehicle+formalin) in flinches in the late phase response (10-40 min) after intraplantar formalin injection ([…] of 5% formalin) compared with control values arbitrarily set at 100%. Drugs were administered subcutaneously, 15 min before formalin. N=8-10 per group. Mean±SEM.
# Antinociceptive actions of GLYX-13 were conducted in a rat formalin assay. Male Sprague-Dawley rats (125-170 g) were manually restrained for a subcutaneous injection of 1.5% formalin ([…] with a 26 ga needle) into the lateral footpad on the plantar surface of the left hind paw. After formalin injections, rats were placed in individual clear plastic cylinders of 30 cm diameter. Drug effects on the second phase of the pain response were monitored with observations conducted over the period between 10 and 40 min after formalin injection. Each group was composed of 10 animals. Vehicle, GLYX-13, or gabapentin was administered subcutaneously at the nape of the neck 10 min before the formalin injection. The time spent licking or elevating the injected limb was quantitated over this […] observation period.
# [2] = tested on: intraplantar formalin pain, late phase; assay: formalin test 8 days after a single dose (Example 7); type: in vivo, rat; details: 1 dose 3 mg/kg i.v. 8 days before intraplantar formalin (1.5%)
# Procedure: FIG. 4 depicts mean±SEM percent analgesia in the late phase (30-50 min) in 3 month old Sprague-Dawley rats pretreated with GLYX-13 (3 mg/kg i.v.), ketamine (10 mg/kg i.v.) or saline vehicle injection (1 mg/ml i.v. tail vein) in freely behaving rats 8 days before left rear paw intraplantar injections (50 μl) of formalin (1.5%). Analgesia is % reduction in licking time, number of flinches, or total pain score (favoring+2×foot up+3×licking time). […] N=10-11 per group. * P<0.05 Fisher PLSD post hoc drug vs. all other groups.
# Freely behaving 3 month old Sprague Dawley rats were pretreated with GLYX -13 (3 mg/kg i.v.), ketamine (10 mg/kg i.v.) or saline vehicle injection (1 mg/ml i.v. tail vein) 8 days before left rear paw intraplantar injections (50 μl) of formalin (1.5%).
# [3] = tested on: Randall-Selitto paw pressure model; assay: Randall-Selitto paw pressure model in rats; type: in vivo, rat
# Procedure: The purpose of this study was to assess the potential effect of GLYX-13 upon the pain threshold in rats using the Randall-Selitto paw pressure model. Groups of 10 male rats (20 for saline vehicle control) were injected with a 20% suspension of yeast in the right hind paw and two hours later, each rat was intravenously administered either saline or GLYX-13 at 1, 5, or 10 mg/kg. The response to mechanical pain stimulus was determined for both the inflamed and non-inflamed paw using an analgesia meter. The amount of force required to elicit paw withdrawal was measured for each rat.
# [4] = blood-brain barrier crossing
# [5] = tested on: rat model of peripheral neuropathy; assay: rat model of peripheral neuropathy, mechanical allodynia (Example 5); type: in vivo; details: for group mean withdrawal threshold, nerve-injured paw: approximately 60 min post-dose
# Procedure: FIG. 2 depicts the result of groups of eight male rats subjected to chronic constriction injury to the right hind limb. Following development of peripheral neuropathy, rats were administered GLYX-13, i.v. at 5, 10 or 20 mg/kg on days 12 and 13 post-operative (PO). Rats were tested for mechanical allodynia at 15 and 60 minutes post-dose on day 13 PO. The data represent mechanical allodynia readings at 15 minutes post-dose.
# The ability of GLYX-13 to attenuate neuropathic pain was assessed in a rat model of peripheral neuropathy. In this study, four groups of eight male rats were subjected to surgically-induced peripheral neuropathy. Peripheral neuropathy was induced in the right hind limb of male rats by loose ligation of the right sciatic nerve according to the method of Bennett and Xie (Bennett and Xie, 1988). After 8-10 days, a peripheral neuropathy had developed in the right hind limbs as determined by sensitivity to both mechanical allodynia and thermal hyperalgesia. This pilot study consisted of four groups of eight male rats. Days 12-13 post surgery, vehicle (0.9% saline) or GLYX-13 at 5, 10, and 20 mg/kg were administered, and rats were tested for sensitivity to both the thermal stimulus and mechanical allodynia. […] The results for GLYX-13 15 minutes post dose in this rodent neuropathy model are shown FIG. 2.
# [6] = tested on: rodent peripheral neuropathy model; assay: second peripheral neuropathy study, mechanical allodynia (Example 6); type: in vivo, rat; details: 5 mg/kg i.v.
# Procedure: FIG. 3 depicts the results of groups of 12 male rats subjected to chronic constriction injury to the right hind limb. Following development of peripheral neuropathy, rats were 5 administered GLYX-13, i.v. at 5, 10 or 20 mg/kg on days 12 and 13 post-operative (PO). Rats were tested for mechanical allodynia at 15 and 60 minutes post-dose on day 13 PO. The data represent mechanical allodynia readings at 60 minutes post-dose.
# A second peripheral neuropathy study was performed with GLYX-13 in male Sprague- Dawley rats. A peripheral mononeuropathy was induced in the right hind limb and rats were tested for development of mechanical allodynia. Rats that had positively developed neuropathy were administered vehicle (0.9% saline) or GLYX-13 i.v. at doses of 5, 10, or 20 mg/kg on days 12 and 13 PO. Testing for mechanical allodynia was performed at 15 and 60 minutes post-dose. […] In this rodent peripheral neuropathy model, i.v. administration of5 mg/kg GLYX-13 to male rats caused a significant reduction in the sensitivity of the nerve injured hind paw to mechanical allodynia at both 15 and 60 minutes post dose. There was no evidence of any systemic or contralateral effects in this study.
# [7] = ataxia on rotor-rod apparatus; type: in vivo; details: 30 min after 5, 50, or 500 mg/kg intravenous administration
# [8] = tested on: acetic-acid induced writhing model in mice; assay: acetic-acid induced writhing model in mice; type: in vivo, mouse; details: male mice; 1, 5, and 10 mg/kg i.v., 5 min before i.p. 0.5% acetic acid
# Procedure: GLYX-13 was tested for antinociceptive activity in an acetic-acid induced writhing model in mice. Groups of 10 male mice were dosed i.v. with either saline or GLYX-13 at 1, 5, or 10 mg/kg. Five minutes later, each mouse was injected i.p. with a solution of 0.5% acetic acid in 0.9% saline and observed for writhing behavior for five minutes. The total number of writhes for each mouse was recorded and the mean number of writhes was compared between the control and GLYX-13 treated groups.
# [9] = tested on: chronic constriction nerve injury model of neuropathic pain; assay: chronic constriction nerve injury model of neuropathic pain (Example 1); type: in vivo, rat; details: 5 mg/kg intravenously; 15 and 60 minutes after dosing
# Procedure: Next, GLYX-13 was evaluated in the chronic constriction nerve injury model of neuropathic pain; 5 mg/kg GLYX-13. Male Sprague-Dawley rats (200-225 g) were anesthetized with sodium pentobarbitone (6 mg/kg, intraperitoneally) and supplemented as necessary with isoflurane (1-3% in oxygen). Under asceptic conditions, the right sciatic nerve was exposed by blunt dissection at the mid thigh level and 1 cm freed of adhering connective tissue. Four chromic catgut (4.0) ligatures were tied to lightly constrict the nerve at 1 mm intervals. The overlying muscle and skin were sutured and, upon recovery from anesthesia, the rats returned to cages of soft padded bedding and to cages with sawdust bedding after 24 h. At days 5, 7, 9, and 11 post recovery, mechanical […] was assessed with Von Frey filaments (calibration numbers, 3.61-6.10) applied to the plantar surface of the hind paw from below. The filaments were evaluated in ascending order with the threshold for both the ipsilateral and contralateral paws being evaluated. The withdrawal threshold was defined as the lowest force of two or more consecutive Von Frey filaments to elicit a withdrawal reflex. […]
# The antinociceptive actions of vehicle or GLYX-13 (5 mg/kg) were evaluated at 15 and 60 minutes after dosing. […]
# [10] = tested on: radiant heat tail flick response; assay: radiant heat tail flick study in rats; type: in vivo, rat; details: male rats; 1, 5, and 10 mg/kg i.v., five minutes after administration
# Procedure: The ability of GLYX-13 to block the radiant heat tail flick response was determined in male rats. Groups of 10 male rats were administered either saline or GLYX-13 at 1, 5, or 10 mg/kg via i.v. injection, and five minutes following administration, the tail of each rat was exposed to a radiant heat stimulus. The time to elicit a characteristic tail flick was determined for each rat and the mean response time was determined for each group.
smiles,measurement,setting,value
"NCC1(CC(=O)O)CCCCC1 [gabapentin, reference compound]","antinociceptive efficacy (percentage analgesia, late phase response)",[1],dose-dependent efficacy
same,ataxia,"[1]; subcutaneous, doses of the formalin study (data not shown)",ataxic at the highest dose
"C[C@@H](O)[C@H](N)C(=O)N1CCC[C@H]1C(=O)N1CCC[C@H]1C(=O)N[C@H](C(N)=O)[C@@H](C)O [GLYX-13, L-threonyl-L-prolyl-L-prolyl-L-threonine amide] (H-TPPT-NH2)",analgesia in the late phase (30-50 min) of the formalin test,[2],increased analgesia 8 days after administration
same,pain threshold (force to elicit paw withdrawal),"[3]; male rats, yeast-inflamed paw, 1, 5, or 10 mg/kg i.v.",no significant effect on the pain threshold
same,pain threshold (force to elicit paw withdrawal),[3]; rats dosed with 5 and 10 mg/kg i.v.,"Slight, but not statistically significant, increases in the pain threshold"
same,crossing of the blood-brain barrier,[4],readily crosses the blood-brain barrier in an active form
same,"withdrawal threshold, nerve-injured paw","[5]; 10 mg/kg i.v., 15 minutes post dose",5.98 ± 2.25 g
same,"withdrawal threshold, nerve-injured paw","[5]; 10 mg/kg i.v., 60 minutes post dose",7.26 ± 2.19 g
same,responses of the uninjured (contralateral) hind paw,"[5]; 5, 10, and 20 mg/kg, any of the time points tested",No marked changes
same,"withdrawal threshold, nerve-injured paw",[5]; doses of 5 and 20 mg/kg,small but distinct increases in withdrawal threshold
same,"group mean withdrawal threshold, nerve-injured paw",[5]; high dose (20 mg/kg i.v.),2.08 ± 1.21 g
same,"group mean withdrawal threshold, nerve-injured paw",[5]; low dose group (5 mg/kg i.v.),5.04 ± 3.09 g
same,withdrawal threshold in the nerve injured hind paw to mechanical allodynia,"[5]; male rats, 5, 10, and 20 mg/kg",marked increase in the withdrawal threshold
same,contralateral effects,[6],no evidence of any contralateral effects
same,sensitivity of the nerve-injured paw to mechanical stimuli (Von Frey filaments),"[6]; free-base, approximately 15 and 60 min post dose",statistically significant reduction in the sensitivity
same,"ataxia, rotor-rod apparatus",[7],not found to induce ataxia
same,ataxia,"[1]; rat, in vivo, sc",not ataxic at any of the doses examined
same,"antinociceptive efficacy (percentage analgesia, late phase response)",[1],dose-dependent efficacy
same,acetic acid induced writhing behavior,[8],did not block acetic acid induced writhing behavior
same,antinociceptive action (mechanical allodynia),[9],antinociceptive at both time points
same,ataxia,[9],no evidence of ataxia
same,response time to a radiant heat stimulus (tail flick),[10],did not result in a change in the response time
